Measured values: US9650395B2, “Antibacterial compounds and methods for use” (PTC Therapeutics, Inc., priority 2011, dated 2017)
In brackets after ≈: the same amount, converted by molar mass. Like-named read-outs stand apart in the source and are kept apart here.

Experiments:
[1] = system: Gram-positive Staphylococcus aureus (S. aureus) 29213; experiment: Antibacterial activity, microbroth dilution MIC, S. aureus 29213; type: cell-based; conditions: Staphylococcus aureus; S. aureus 29213, microbroth dilution; read-out: MIC, 29213
[2] = system: resistant K. pneumoniae MXX1232 (MDR clinical isolate); experiment: Antibacterial activity, MIC, resistant K. pneumoniae MXX1232; type: cell-based, Klebsiella pneumoniae; conditions: Klebsiella pneumoniae, read-out: MIC MMX1232
[3] = system: control Gram-negative E. coli 25922 strain; experiment: Antibacterial activity, microbroth dilution MIC, E. coli 25922; type: cell-based, Escherichia coli; conditions: Escherichia coli; E. coli 25922, microbroth dilution; read-out: MIC, 25922
[4] = system: Pseudomonas aeruginosa (P. aeruginosa) 27853; experiment: Antibacterial activity, MIC, P. aeruginosa 27853; type: cell-based; conditions: Pseudomonas aeruginosa, P. aeruginosa 27853; read-out: MIC 27853
Description: (§1) The antibacterial activity from a microbroth dilution method may be presented as the minimum inhibitory concentration (MIC in […]). The MIC value is the lowest concentration of a drug which prevents macroscopically visible bacterial growth under test conditions.
Antibacterial activity of test compounds against the Gram-negative bacterium Pseudomonas aeruginosa (P. aeruginosa) 27853 is shown in Table 5.

[5] = system: quinolone resistant E. coli LZ3111; experiment: Antibacterial activity, MIC, quinolone resistant E. coli LZ3111; type: cell-based, Escherichia coli; conditions: Escherichia coli, read-out: MIC, LZ3111
Description: as §1
Mutations in these regions are known to confer a high level resistance to the quinolone class of antibiotics.

[6] = system: Klebsiella pneumoniae (K. pneumoniae) 35657; experiment: Antibacterial activity, MIC, K. pneumoniae 35657; type: cell-based; conditions: Klebsiella pneumoniae
[7] = system: super sensitive Gram-negative Escherichia coli (E. coli) BAS849; experiment: Antibacterial activity, microbroth dilution MIC, E. coli BAS849; type: cell-based; conditions: Escherichia coli; E. coli BAS849, microbroth dilution; read-out: MIC, BAS849
[8] = system: Acinetobacter baumannii (A. baumannii) BAA747; experiment: Antibacterial activity, MIC, A. baumannii BAA747; type: cell-based; conditions: Acinetobacter baumannii; A. baumannii BAA747; read-out: MIC BAA747
[9] = system: resistant A. baumannii MXX2240 (MDR clinical isolate); experiment: Antibacterial activity, MIC, resistant A. baumannii MXX2240; type: cell-based, Acinetobacter baumannii; conditions: Acinetobacter baumannii, read-out: MIC MMX2240
[10] = resistant K. pneumoniae MMX1232, MDR clinical isolate
[11] = resistant A. baumannii MMX2240, MDR clinical isolate

SMILES	MIC [1]	MIC [2, 10]	MIC [3]	MIC [4]	MIC [5]	MIC [6]	MIC [7]	MIC [8]	MIC [9, 11]	MIC [2]	MIC [9]
COCc1c(-c2ccc(N(C)C)cc2)[nH]c(=O)c(C(=O)O)c1O [Cpd 332, 6-(4-(dimethylamino)phenyl)-4-hydroxy-5-(methoxymethyl)-2-oxo-1,2-dihydropyridine-3-carboxylic acid]	12.5 to 150 µg/mL (≈ 39.3 to 471 µM)	12.5 to 150 µg/mL (≈ 39.3 to 471 µM)	12.5 to 150 µg/mL (≈ 39.3 to 471 µM)	12.5 to 150 µg/mL (≈ 39.3 to 471 µM)	12.5 to 150 µg/mL (≈ 39.3 to 471 µM)	12.5 to 150 µg/mL (≈ 39.3 to 471 µM)	12.5 to 150 µg/mL (≈ 39.3 to 471 µM)	12.5 to 150 µg/mL (≈ 39.3 to 471 µM)	12.5 to 150 µg/mL (≈ 39.3 to 471 µM)	–	–
CC#Cc1c(-c2ccc(N(C)C)cc2)[nH]c(=O)c(C(=O)O)c1O [Cpd 333, 6-(4-(dimethylamino)phenyl)-4-hydroxy-2-oxo-5-(prop-1-ynyl)-1,2-dihydropyridine-3-carboxylic acid]	12.5 to 150 µg/mL (≈ 40 to 480 µM)	12.5 to 150 µg/mL (≈ 40 to 480 µM)	12.5 to 150 µg/mL (≈ 40 to 480 µM)	12.5 to 150 µg/mL (≈ 40 to 480 µM)	12.5 to 150 µg/mL (≈ 40 to 480 µM)	12.5 to 150 µg/mL (≈ 40 to 480 µM)	1 to 3.5 µg/mL (≈ 3.2 to 11.2 µM)	12.5 to 150 µg/mL (≈ 40 to 480 µM)	12.5 to 150 µg/mL (≈ 40 to 480 µM)	–	–
CCc1c(-c2ccc(O)cc2)[nH]c(=O)c(C(=O)O)c1O [Cpd 334, 5-ethyl-4-hydroxy-6-(4-hydroxyphenyl)-2-oxo-1,2-dihydropyridine-3-carboxylic acid]	12.5 to 150 µg/mL (≈ 45.4 to 545 µM)	12.5 to 150 µg/mL (≈ 45.4 to 545 µM)	12.5 to 150 µg/mL (≈ 45.4 to 545 µM)	12.5 to 150 µg/mL (≈ 45.4 to 545 µM)	12.5 to 150 µg/mL (≈ 45.4 to 545 µM)	12.5 to 150 µg/mL (≈ 45.4 to 545 µM)	3.5 to 12.5 µg/mL (≈ 12.7 to 45.4 µM)	12.5 to 150 µg/mL (≈ 45.4 to 545 µM)	12.5 to 150 µg/mL (≈ 45.4 to 545 µM)	–	–
CCc1c(-c2ccc(N3CCC(N(C)C)C3)nc2)[nH]c(=O)c(C(=O)O)c1O (stereo not drawn) [Cpd 335, 6-(6-(3-(dimethylamino)pyrrolidin-1-yl)pyridin-3-yl)-5-ethyl-4-hydroxy-2-oxo-1,2-dihydropyridine-3-carboxylic acid]	12.5 to 150 µg/mL (≈ 33.6 to 403 µM)	12.5 to 150 µg/mL (≈ 33.6 to 403 µM)	12.5 to 150 µg/mL (≈ 33.6 to 403 µM)	12.5 to 150 µg/mL (≈ 33.6 to 403 µM)	< 1 µg/mL	12.5 to 150 µg/mL (≈ 33.6 to 403 µM)	3.5 to 12.5 µg/mL (≈ 9.4 to 33.6 µM)	12.5 to 150 µg/mL (≈ 33.6 to 403 µM)	12.5 to 150 µg/mL (≈ 33.6 to 403 µM)	–	–
CCc1c(-c2ccc(N3CCCC3)nc2)[nH]c(=O)c(C(=O)O)c1O [Cpd 336, 5-ethyl-4-hydroxy-2-oxo-6-(6-(pyrrolidin-1-yl)pyridin-3-yl)-1,2-dihydropyridine-3-carboxylic acid]	12.5 to 150 µg/mL (≈ 38 to 455 µM)	12.5 to 150 µg/mL (≈ 38 to 455 µM)	12.5 to 150 µg/mL (≈ 38 to 455 µM)	12.5 to 150 µg/mL (≈ 38 to 455 µM)	3.5 to 12.5 µg/mL (≈ 10.6 to 38 µM)	12.5 to 150 µg/mL (≈ 38 to 455 µM)	1 to 3.5 µg/mL (≈ 3.04 to 10.6 µM)	12.5 to 150 µg/mL (≈ 38 to 455 µM)	12.5 to 150 µg/mL (≈ 38 to 455 µM)	–	–
Cc1c(-c2ccc(N3CCC(N(C)C)C3)nc2)[nH]c(=O)c(C(=O)O)c1O (stereo not drawn) [Cpd 337, 6-(6-(3-(dimethylamino)pyrrolidin-1-yl)pyridin-3-yl)-4-hydroxy-5-methyl-2-oxo-1,2-dihydropyridine-3-carboxylic acid]	12.5 to 150 µg/mL (≈ 34.9 to 419 µM)	12.5 to 150 µg/mL (≈ 34.9 to 419 µM)	12.5 to 150 µg/mL (≈ 34.9 to 419 µM)	12.5 to 150 µg/mL (≈ 34.9 to 419 µM)	< 1 µg/mL	12.5 to 150 µg/mL (≈ 34.9 to 419 µM)	12.5 to 150 µg/mL (≈ 34.9 to 419 µM)	12.5 to 150 µg/mL (≈ 34.9 to 419 µM)	12.5 to 150 µg/mL (≈ 34.9 to 419 µM)	–	–
CCc1c(-c2ccc(C3CCN(C)CC3)cc2)[nH]c(=O)c(C(=O)O)c1O [Cpd 338, 5-ethyl-4-hydroxy-6-(4-(1-methylpiperidin-4-yl)phenyl)-2-oxo-1,2-dihydropyridine-3-carboxylic acid]	12.5 to 150 µg/mL (≈ 35.1 to 421 µM)	12.5 to 150 µg/mL (≈ 35.1 to 421 µM)	12.5 to 150 µg/mL (≈ 35.1 to 421 µM)	12.5 to 150 µg/mL (≈ 35.1 to 421 µM)	12.5 to 150 µg/mL (≈ 35.1 to 421 µM)	12.5 to 150 µg/mL (≈ 35.1 to 421 µM)	12.5 to 150 µg/mL (≈ 35.1 to 421 µM)	12.5 to 150 µg/mL (≈ 35.1 to 421 µM)	12.5 to 150 µg/mL (≈ 35.1 to 421 µM)	–	–
CCc1c(-c2ccc(C3CCN(CC)CC3)cc2)[nH]c(=O)c(C(=O)O)c1O [Cpd 339, 5-ethyl-6-(4-(1-ethylpiperidin-4-yl)phenyl)-4-hydroxy-2-oxo-1,2-dihydropyridine-3-carboxylic acid]	12.5 to 150 µg/mL (≈ 33.7 to 405 µM)	12.5 to 150 µg/mL (≈ 33.7 to 405 µM)	12.5 to 150 µg/mL (≈ 33.7 to 405 µM)	12.5 to 150 µg/mL (≈ 33.7 to 405 µM)	12.5 to 150 µg/mL (≈ 33.7 to 405 µM)	12.5 to 150 µg/mL (≈ 33.7 to 405 µM)	3.5 to 12.5 µg/mL (≈ 9.45 to 33.7 µM)	12.5 to 150 µg/mL (≈ 33.7 to 405 µM)	12.5 to 150 µg/mL (≈ 33.7 to 405 µM)	–	–
CCc1c(-c2ccc(C3=CCNCC3)cc2)[nH]c(=O)c(C(=O)O)c1O [Cpd 340, 5-ethyl-4-hydroxy-2-oxo-6-(4-(1,2,3,6-tetrahydropyridin-4-yl)phenyl)-1,2-dihydropyridine-3-carboxylic acid]	12.5 to 150 µg/mL (≈ 36.7 to 441 µM)	–	12.5 to 150 µg/mL (≈ 36.7 to 441 µM)	12.5 to 150 µg/mL (≈ 36.7 to 441 µM)	12.5 to 150 µg/mL (≈ 36.7 to 441 µM)	3.5 to 12.5 µg/mL (≈ 10.3 to 36.7 µM)	3.5 to 12.5 µg/mL (≈ 10.3 to 36.7 µM)	12.5 to 150 µg/mL (≈ 36.7 to 441 µM)	–	12.5 to 150 µg/mL (≈ 36.7 to 441 µM)	12.5 to 150 µg/mL (≈ 36.7 to 441 µM)
CCc1c(-c2ccc(C3=CCN(CC)CC3)cc2)[nH]c(=O)c(C(=O)O)c1O [Cpd 341, 5-ethyl-6-(4-(1-ethyl-1,2,3,6-tetrahydropyridin-4-yl)phenyl)-4-hydroxy-2-oxo-1,2-dihydropyridine-3-carboxylic acid]	12.5 to 150 µg/mL (≈ 33.9 to 407 µM)	–	12.5 to 150 µg/mL (≈ 33.9 to 407 µM)	12.5 to 150 µg/mL (≈ 33.9 to 407 µM)	3.5 to 12.5 µg/mL (≈ 9.5 to 33.9 µM)	3.5 to 12.5 µg/mL (≈ 9.5 to 33.9 µM)	1 to 3.5 µg/mL (≈ 2.71 to 9.5 µM)	12.5 to 150 µg/mL (≈ 33.9 to 407 µM)	–	12.5 to 150 µg/mL (≈ 33.9 to 407 µM)	12.5 to 150 µg/mL (≈ 33.9 to 407 µM)
